From ChEMBL document CHEMBL1201862, “PubChem BioAssay data set” (2004)
Calls of active or inactive are those of the source.

molecular target: Luciferin 4-monooxygenase (Photinus pyralis, UniProt P08659); test: firefly luciferase enzyme inhibitors, dose response, biochemical, luminescence (AID 1891); conditions: not given
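Throughout, for AC50: cells exposed to compound for roughly 70 hours or longer before luminescence read.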

Chain of Luciferin 4-monooxygenase (P08659 whole entry): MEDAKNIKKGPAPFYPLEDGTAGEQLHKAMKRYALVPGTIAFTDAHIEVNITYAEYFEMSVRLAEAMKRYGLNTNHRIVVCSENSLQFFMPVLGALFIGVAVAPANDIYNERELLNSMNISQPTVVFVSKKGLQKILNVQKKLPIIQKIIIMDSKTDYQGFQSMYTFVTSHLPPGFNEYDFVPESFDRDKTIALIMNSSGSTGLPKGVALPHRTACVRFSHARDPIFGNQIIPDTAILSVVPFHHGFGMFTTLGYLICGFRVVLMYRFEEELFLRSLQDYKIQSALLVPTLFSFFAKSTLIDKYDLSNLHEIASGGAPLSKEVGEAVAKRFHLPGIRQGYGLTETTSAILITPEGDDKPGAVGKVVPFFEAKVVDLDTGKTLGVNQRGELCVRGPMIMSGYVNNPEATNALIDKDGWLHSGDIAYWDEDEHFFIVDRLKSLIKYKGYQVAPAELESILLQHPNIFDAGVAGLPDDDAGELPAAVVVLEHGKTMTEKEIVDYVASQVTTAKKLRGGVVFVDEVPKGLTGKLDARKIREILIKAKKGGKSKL

Structure (SMILES) | EC50
O=C(c1ccco1)N1CCN(C(=O)c2ccc(COc3ccc(F)cc3)o2)CC1 | > 112 µM (not active)
COc1ccc(Br)cc1/C=N/n1c(C)nnc1C | > 112 µM (not active)

test system: not listed separately; test: Luminescence Cell-Based Dose Confirmation HTS to Identify Inhibitors of Platelet Dense Granule Release. [Related pubchem assays: 1663 (Primary HTS), 1678 (Summary of Project)]; assay type: functional; conditions: not given

Structure (SMILES) | EC50
O=C(c1ccco1)N1CCN(C(=O)c2ccc(COc3ccc(F)cc3)o2)CC1 | > 112 µM (not active)
COc1ccc(Br)cc1/C=N/n1c(C)nnc1C | > 112 µM (not active)

test system: not listed separately; test: Luminescence Cell-Based Dose Retest to Confirm Inhibitors of Cancer Stem Cells. [Related pubchem assays (depositor defined):AID2717, AID2721]; assay type: functional; conditions: Homo sapiens

Structure (SMILES) | AC50
COc1ccc(-c2cc(C(=O)N3CC4(C)CC3CC(C)(C)C4)no2)cc1OC (centres undefined) | 1.75 µM (active)
CCCn1c(=O)c(C(=O)NNS(=O)(=O)c2ccc(Cl)cc2)c(O)c2ccccc21 | 1.57 µM (active)
CN(C)c1ccc(/C=C(\Cl)c2nc3ccccc3s2)cc1 | 1.58 µM (active)
Cc1cccc(C(=O)Nc2ccc(C(=O)Nc3ccc(O)cc3)cc2)c1 | 2.09 µM (active)
CCCn1c(SCC#N)nc2c(c1=O)C1(CCCC1)Cc1ccccc1-2 | 1.92 µM (active)
O=[N+]([O-])c1ccc(Cl)c(/C=N/n2c(S)nnc2C2CCCCC2)c1 | 36.1 µM (active)
COc1ccc(/C=N/OCC(=O)N2CC3(C)CC2CC(C)(C)C3)cc1 (centres undefined) | 11.5 µM (active)

molecular target: T1, Ubiquitin-conjugating enzyme E2 N (Homo sapiens, UniProt P61088); assay type: functional; conditions: not given;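 note: Dose-response confirmation in a TR-FRET assay detecting UBC13-driven polyubiquitin chain formation, inhibition measured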
T1 sequence (P61088 whole entry): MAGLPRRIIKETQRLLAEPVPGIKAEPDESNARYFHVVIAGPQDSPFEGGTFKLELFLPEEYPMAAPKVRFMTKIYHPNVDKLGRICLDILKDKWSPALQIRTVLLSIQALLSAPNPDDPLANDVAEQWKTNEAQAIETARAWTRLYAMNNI

IC50 | Structure (SMILES)
> 20 µM (inactive) | CCCCc1ccc(/C=C(\C#N)C(N)=S)s1
> 20 µM (inactive) | Cc1nc(N)sc1C(=O)NN
> 20 µM (inactive) | COc1ccc(-c2oc(=O)c3cc(OC)c(OC)cc3c2C#CC2(O)CCCCC2)cc1

molecular target: T2, Corticotropin-releasing factor receptor 2/Corticotropin-releasing factor-binding protein (Homo sapiens, UniProt P24387+Q13324); test: Dose Response confirmation of uHTS hits for small molecule antagonists of the CRF-binding protein and CRF-R2 receptor complex.; assay type: functional; conditions: read-out: IC50_Mean
T2 sequence (Q13324 whole entry): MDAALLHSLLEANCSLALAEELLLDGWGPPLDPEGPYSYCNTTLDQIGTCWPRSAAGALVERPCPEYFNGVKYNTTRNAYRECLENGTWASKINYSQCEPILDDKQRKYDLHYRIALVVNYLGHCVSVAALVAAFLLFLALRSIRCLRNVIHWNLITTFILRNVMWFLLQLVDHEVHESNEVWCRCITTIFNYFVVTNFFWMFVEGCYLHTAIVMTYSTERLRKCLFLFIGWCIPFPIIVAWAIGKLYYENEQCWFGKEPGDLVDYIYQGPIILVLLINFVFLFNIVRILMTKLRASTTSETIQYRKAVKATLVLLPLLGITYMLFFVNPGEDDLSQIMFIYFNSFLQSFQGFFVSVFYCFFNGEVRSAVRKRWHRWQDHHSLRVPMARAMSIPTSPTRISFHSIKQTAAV
T2 sequence (P24387 whole entry): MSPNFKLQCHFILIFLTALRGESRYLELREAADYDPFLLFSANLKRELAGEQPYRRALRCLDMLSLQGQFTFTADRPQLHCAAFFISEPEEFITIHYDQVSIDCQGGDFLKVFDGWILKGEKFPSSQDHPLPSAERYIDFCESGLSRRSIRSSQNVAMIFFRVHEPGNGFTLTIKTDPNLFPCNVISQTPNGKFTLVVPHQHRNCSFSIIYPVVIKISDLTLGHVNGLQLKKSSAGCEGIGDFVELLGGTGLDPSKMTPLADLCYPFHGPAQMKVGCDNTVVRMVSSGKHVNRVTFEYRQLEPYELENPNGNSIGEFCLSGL

Structure (SMILES) | IC50
CC(NCC(=O)Nc1ccccc1C(=O)NC1CC1)c1cccc(Cl)c1 (centres undefined) | > 47.1 µM (inactive)
O=C(CCn1nnc2ccccc21)N1CCN(c2ccccc2)CC1 | > 47.1 µM (inactive)
CCn1c(SCC(=O)NC2CC2)nnc1-c1ccncc1 | > 47.1 µM (inactive)

The remaining lines, values ahead:

IC50 | Structure (SMILES)
> 47.1 µM (inactive) | Cc1ccccc1-n1c(CSC(=N)N)nc2ccccc2c1=O
> 47.1 µM (inactive) | Cc1ccc(N2CCN(C(=O)CN3C(=O)c4ccccc4C3=O)CC2)cc1
> 47.1 µM (inactive) | Cc1c(NC2=C(Cl)C(=O)N(c3ccccc3Cl)C2=O)c(=O)n(-c2ccccc2)n1C
> 47.1 µM (inactive) | COc1cccc(NC(=S)C(C#N)=C2N(C)c3ccccc3N2C)c1
> 47.1 µM (inactive) | O=C(CSc1nc[nH]n1)Nc1cc(S(=O)(=O)N2CCCC2)ccc1Cl
> 47.1 µM (inactive) | COc1cccc(CN(C)C(=O)c2cccc(S(=O)(=O)N3CCN(c4ccccc4)CC3)c2)c1OC
> 47.1 µM (inactive) | CCCn1cc(S(=O)(=O)c2ccccc2)c(=O)c2cc(OCC)ccc21

molecular target: T2, Corticotropin-releasing factor receptor 2/Corticotropin-releasing factor-binding protein; test: activators of CRF receptor 2 with binding protein – uHTS hits, confirmation (AID 602473); assay type: functional; conditions: read-out: EC50_Mean

Structure (SMILES) | EC50
CC(NCC(=O)Nc1ccccc1C(=O)NC1CC1)c1cccc(Cl)c1 (centres undefined) | > 53 µM (inactive)
O=C(CCn1nnc2ccccc21)N1CCN(c2ccccc2)CC1 | > 53 µM (inactive)
CCn1c(SCC(=O)NC2CC2)nnc1-c1ccncc1 | > 53 µM (inactive)

Results, then the compound that gave them:

EC50 | Structure (SMILES)
> 53 µM (inactive) | Cc1ccccc1-n1c(CSC(=N)N)nc2ccccc2c1=O
> 53 µM (inactive) | Cc1ccc(N2CCN(C(=O)CN3C(=O)c4ccccc4C3=O)CC2)cc1
> 53 µM (inactive) | Cc1c(NC2=C(Cl)C(=O)N(c3ccccc3Cl)C2=O)c(=O)n(-c2ccccc2)n1C
> 53 µM (inactive) | COc1cccc(NC(=S)C(C#N)=C2N(C)c3ccccc3N2C)c1
> 53 µM (inactive) | O=C(CSc1nc[nH]n1)Nc1cc(S(=O)(=O)N2CCCC2)ccc1Cl
> 53 µM (inactive) | COc1cccc(CN(C)C(=O)c2cccc(S(=O)(=O)N3CCN(c4ccccc4)CC3)c2)c1OC
> 53 µM (inactive) | CCCn1cc(S(=O)(=O)c2ccccc2)c(=O)c2cc(OCC)ccc21
